# Test results from patent US12398110B2, “Second generation inhibitors of mitochondrial permeability transition pore with improved plasma stability” (Oregon Health & Science University, priority 2019, dated 2025).
# Legend:
# Type in all cases: biochemical
# [1] = test system: mtPTP; test: Ca2+ retention capacity (CRC) of isolated mouse liver mitochondria
# How it was run: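 Freshly isolated liver mitochondria from male C57BL6/N mice, suspension at 0.5 mg/mL as added, in substrate-free SAB with 1 μm Calcium Green-5N; compounds in 1:2 serial dilutions against 2% DMSO controls. Sequential 10 μm CaCl2 pulses every 2 min, extramitochondrial Ca2+ read at ex/em 485/535 nm.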
# [2] = test system: inner mitochondrial membrane potential; test: Rhodamine 123 (Rh123) uptake, mitochondrial membrane potential of isolated mouse liver mitochondria
# [3] = test system: isolated mouse liver mitochondria; test: Oxygen consumption rate of isolated mitochondria (Seahorse XF24)
# Text: A thorough evaluation of toxicity is critical for advancing TR001 to in vivo studies. […] To more thoroughly examine mitochondrial toxicity, we analyzed oxygen consumption rates (OCRs) using the Seahorse XF24 extracellular flux analyzer. This allowed us to assess the effects of TR001 on mitochondrial respiration and ATP synthesis. […] Consequently respiratory control ratios (i.e., the ratios between ADP-stimulated and basal respiration) were not affected across the concentrations tested (FIG. 5B). Complex III inhibitor antimycin A shuts down the electron transport chain at the bc1 complex and was used to account for oxygen leak.
# Measurement of respiration. Mitochondrial oxygen consumption of isolated mitochondria or HeLa cell monolayer was assessed with the Seahorse Extracellular Flux Analyzer XF24 (Seahorse Bioscience, Billerica, MA, USA). Isolated mouse liver mitochondria: Mitochondrial assay solution contained 220 mm mannitol, 70 mm sucrose, 25 mm MOPS-Tris, 10 mm Pi-Tris, 5 mm MgCl2, 1 mm EGTA-Tris, 0.2% fatty acid free BSA, 5 mm succinate and 2 μm rotenone, pH 7.4. Mitochondria (5 μg, suspended in 50 μL mitochondrial assay solution) were added to each well of an XF24 cell culture microplate, centrifuged at 2000 g for 20 min at 4° C. and then supplemented with 450 μL of mitochondrial assay solution containing 4 mm ADP to initiate the experiments.
compound,measurement,setting,value
"Cc1ccc(Cl)cc1NC(=O)c1cn(-c2ccc(F)c(O)c2)nn1 [TR001, N-(5-chloro-2-methylphenyl)-1-(4-fluoro-3-hydroxyphenyl)-1H-1,2,3-triazole-4-carboxamide]",CRC effect in combination with CsA,[1]; TR001 in combination with 2 μm CsA,additive with CsA
same,CRC/CRC0 at 1.25 μM,"[1]; compound treated CRC to DMSO treated CRC0 ratio, 1.25 μM, average ± SEM, n = 3-25",6.8 ± 0.4
same,maximal efficacy as defined by CRC/CRC0 ratio,[1]; mouse liver mitochondria,~10
same,interference with buildup of IMM potential (in words),[2]; Rh123 uptake assay,did not interfere with IMM potential
same,EC50,"[2]; interference with Rh123 uptake to mitochondria, average ± SEM, n = 3, read-out: Rh123 uptake EC50",> 40 µM
same,"rates of oxygen consumption (ADP stimulation, oligomycin, FCCP)",[3],no effect
same,respiratory control ratios,[3]; across the concentrations tested,not affected
